In US10787450B2 (BRISTOL-MYERS SQUIBB COMPANY, priority 2016, dated 2020) one finds IC50 data, which are given here for 22 molecules.

Chain of ROCK2 (O75116 whole entry, species assumed): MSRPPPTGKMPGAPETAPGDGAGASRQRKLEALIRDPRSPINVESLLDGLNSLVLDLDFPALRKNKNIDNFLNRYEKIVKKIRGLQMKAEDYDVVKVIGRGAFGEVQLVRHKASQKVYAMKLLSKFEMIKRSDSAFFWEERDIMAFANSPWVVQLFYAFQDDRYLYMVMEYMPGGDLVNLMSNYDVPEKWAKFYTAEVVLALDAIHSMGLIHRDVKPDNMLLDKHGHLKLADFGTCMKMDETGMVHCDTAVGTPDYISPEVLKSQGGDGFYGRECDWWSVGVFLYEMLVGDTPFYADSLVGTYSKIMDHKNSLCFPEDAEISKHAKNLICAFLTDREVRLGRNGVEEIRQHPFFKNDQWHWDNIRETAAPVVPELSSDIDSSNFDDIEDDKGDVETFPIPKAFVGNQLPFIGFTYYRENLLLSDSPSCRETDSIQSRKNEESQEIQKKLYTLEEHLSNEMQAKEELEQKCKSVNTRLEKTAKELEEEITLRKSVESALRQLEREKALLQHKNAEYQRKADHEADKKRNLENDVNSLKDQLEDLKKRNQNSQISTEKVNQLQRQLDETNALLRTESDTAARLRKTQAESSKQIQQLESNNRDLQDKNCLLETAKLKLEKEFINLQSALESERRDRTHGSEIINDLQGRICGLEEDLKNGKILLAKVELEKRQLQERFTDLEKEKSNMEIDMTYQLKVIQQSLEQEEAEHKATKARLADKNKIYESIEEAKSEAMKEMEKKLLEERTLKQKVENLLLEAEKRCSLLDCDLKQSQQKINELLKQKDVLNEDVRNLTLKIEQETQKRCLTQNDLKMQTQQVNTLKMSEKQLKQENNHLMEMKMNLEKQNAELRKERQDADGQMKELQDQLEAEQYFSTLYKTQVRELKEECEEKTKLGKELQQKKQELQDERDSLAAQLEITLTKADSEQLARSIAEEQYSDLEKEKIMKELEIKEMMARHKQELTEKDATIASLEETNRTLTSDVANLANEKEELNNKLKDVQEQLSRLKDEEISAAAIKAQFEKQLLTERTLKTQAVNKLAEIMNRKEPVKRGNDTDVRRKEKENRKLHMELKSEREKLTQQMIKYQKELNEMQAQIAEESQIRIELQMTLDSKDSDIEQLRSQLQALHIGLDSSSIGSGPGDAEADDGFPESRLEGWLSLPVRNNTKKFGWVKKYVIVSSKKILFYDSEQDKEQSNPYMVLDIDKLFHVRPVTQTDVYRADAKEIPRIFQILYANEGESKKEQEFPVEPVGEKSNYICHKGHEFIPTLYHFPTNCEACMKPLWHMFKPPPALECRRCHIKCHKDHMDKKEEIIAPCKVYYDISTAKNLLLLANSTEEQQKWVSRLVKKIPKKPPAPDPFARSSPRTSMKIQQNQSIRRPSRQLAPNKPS

The test has as its target ROCK2 (Homo sapiens (Human), UniProt O75116). Put plainly: ROCK2 kinase inhibition assay (FITC peptide substrate, LABCHIP 3000 Reader). In kind it is biochemical. Particulars: 5 μM ATP, 1.5 μM peptide substrate. The method, boiled down: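 Reaction in 20 mM HEPES pH 7.5, 20 mM MgCl2, 0.015% Brij-35, 4 mM DTT with 5 μM ATP and 1.5 μM FITC-AHA-AKRRRLSSLRA-OH peptide, started with Rho kinase, DMSO <2%. EDTA-stopped; phospho and non-phospho peptide separated by mobility shift. IC50 from dose-response curve fit.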
With `COc1cccc(CN2C(=O)N(c3ccc(-c4cn[nH]c4)cc3)CC23CCN(C(=O)OC(C)C)CC3)c1` [Example 99, isopropyl 3-(4-(1H-pyrazol-4-yl)phenyl)-1-(3-methoxybenzyl)-2-oxo-1,3,8-triazaspiro[4.5]decane-8-carboxylate], the IC50 was less than 3 nM. For the molecule `CCCOC(=O)N1CCC2(CC1)CN(c1ccc(-c3cn[nH]c3)cc1)C(=O)N2Cc1cccc(OC)c1` [Example 100, propyl 3-(4-(1H-pyrazol-4-yl)phenyl)-1-(3-methoxybenzyl)-2-oxo-1,3,8-triazaspiro[4.5]decane-8-carboxylate], the IC50 was less than 3 nM. The molecule `COc1cccc(CN2C(=O)N(c3ccc(-c4cn[nH]c4)cc3)CC23CCN(C(=O)OCCOCc2ccccc2)CC3)c1` [Example 101, 2-(benzyloxy)ethyl 3-(4-(1H-pyrazol-4-yl)phenyl)-1-(3-methoxybenzyl)-2-oxo-1,3,8-triazaspiro[4.5]decane-8-carboxylate] gave a concentration for half-maximal inhibition (IC50) of 3 to 30 nM.

`COC(=O)N1CCC2(CC1)CN(c1ccc(-c3cn[nH]c3)c(OC)n1)C(=O)N2Cc1cccc(OC)c1` [Example 102, methyl 3-(6-methoxy-5-(1H-pyrazol-4-yl)pyridin-2-yl)-1-(3-methoxybenzyl)-2-oxo-1,3,8-triazaspiro[4.5]decane-8-carboxylate] returned an IC50 of less than 3 nM.

`COC(=O)N1CCC2(CC1)CN(c1ccc(-c3cn[nH]c3)c(OC)n1)C(=O)N2Cc1cccc(F)c1C` [Example 103, methyl 1-(3-fluoro-2-methylbenzyl)-3-(6-methoxy-5-(1H-pyrazol-4-yl)pyridin-2-yl)-2-oxo-1,3,8-triazaspiro[4.5]decane-8-carboxylate] returned a concentration for half-maximal inhibition (IC50) of less than 3 nM. Take `CCc1nc(N2CC3(CCN(C(=O)OC)CC3)N(Cc3cccc(F)c3C)C2=O)ccc1-c1cn[nH]c1` [Example 104, methyl 3-(6-ethyl-5-(1H-pyrazol-4-yl)pyridin-2-yl)-1-(3-fluoro-2-methylbenzyl)-2-oxo-1,3,8-triazaspiro[4.5]decane-8-carboxylate]: the IC50 was less than 3 nM. `CCc1nc(N2CC3(CCN(C(=O)OC)CC3)N(Cc3cccc(OC)c3)C2=O)ccc1-c1cn[nH]c1` [Example 105, methyl 3-(6-ethyl-5-(1H-pyrazol-4-yl)pyridin-2-yl)-1-(3-methoxybenzyl)-2-oxo-1,3,8-triazaspiro[4.5]decane-8-carboxylate] gave an IC50 of less than 3 nM. The same measure for `CCOC(=O)N1CCC2(CC1)CN(c1ccc(-c3cn[nH]c3)c(CC)n1)C(=O)N2Cc1cc(F)cc(OC)c1` [Example 106, ethyl 3-(6-ethyl-5-(1H-pyrazol-4-yl)pyridin-2-yl)-1-(3-fluoro-5-methoxybenzyl)-2-oxo-1,3,8-triazaspiro[4.5]decane-8-carboxylate]: 3 to 30 nM.

As to `CCc1nc(N2CC3(CCN(C(=O)OC)CC3)N(Cc3cc(F)cc(OC)c3)C2=O)ccc1-c1cn[nH]c1` [Example 107, methyl 3-(6-ethyl-5-(1H-pyrazol-4-yl)pyridin-2-yl)-1-(3-fluoro-5-methoxybenzyl)-2-oxo-1,3,8-triazaspiro[4.5]decane-8-carboxylate], the IC50 was less than 3 nM.

As to `COC(=O)N1CCC2(CC1)CN(c1ccc(-c3cn[nH]c3)cc1)C(=O)N2Cc1cccc(F)c1C` [Example 108, methyl 3-(4-(1H-pyrazol-4-yl)phenyl)-1-(3-fluoro-2-methylbenzyl)-2-oxo-1,3,8-triazaspiro[4.5]decane-8-carboxylate], the IC50 was less than 3 nM. In the case of `COC(=O)N1CCC2(CC1)CN(c1ccc(-c3cn[nH]c3)cc1)C(=O)N2Cc1cc(F)cc(OC)c1` [Example 109, methyl 3-(4-(1H-pyrazol-4-yl)phenyl)-1-(3-fluoro-5-methoxybenzyl)-2-oxo-1,3,8-triazaspiro[4.5]decane-8-carboxylate], the IC50 was less than 3 nM. Take `CCOC(=O)N1CCC2(CC1)CN(c1ccc(-c3cn[nH]c3)cn1)C(=O)N2Cc1cccc(OC)c1` [Example 110, ethyl 3-(5-(1H-pyrazol-4-yl)pyridin-2-yl)-1-(3-methoxybenzyl)-2-oxo-1,3,8-triazaspiro[4.5]decane-8-carboxylate]: the half-maximal inhibitory concentration (IC50) fell in the range of 30 to 250 nM. `COC(=O)N1CCC2(CC1)CN(c1ncc(-c3cn[nH]c3)c(OC)n1)C(=O)N2Cc1cccc(OC)c1` [Example 111, methyl 3-(4-methoxy-5-(1H-pyrazol-4-yl)pyrimidin-2-yl)-1-(3-methoxybenzyl)-2-oxo-1,3,8-triazaspiro[4.5]decane-8-carboxylate]: the half-inhibitory concentration (IC50) was in the range of 3 to 30 nM. For `CCOC(=O)N1CCC2(CC1)CN(c1ncc(-c3cn[nH]c3)c(OC)n1)C(=O)N2Cc1cccc(OC)c1` [Example 112, ethyl 3-(4-methoxy-5-(1H-pyrazol-4-yl)pyrimidin-2-yl)-1-(3-methoxybenzyl)-2-oxo-1,3,8-triazaspiro[4.5]decane-8-carboxylate], the concentration for half-maximal inhibition (IC50) is 3 to 30 nM. With `COc1cccc(CN2C(=O)N(c3ccc(-c4cn[nH]c4)cc3)CC23CCN(C)CC3)c1` [Example 113, 3-(4-(1H-pyrazol-4-yl)phenyl)-1-(3-methoxybenzyl)-8-methyl-1,3,8-triazaspiro[4.5]decan-2-one], the IC50 is less than 3 nM. `COc1cccc(CN2C(=O)N(c3ccc(-c4cn[nH]c4)cc3)CC23CCN(CC2CCOC2)CC3)c1` (stereo not shown) [Example 114, 3-(4-(1H-pyrazol-4-yl)phenyl)-1-(3-methoxybenzyl)-8-((tetrahydrofuran-3-yl)methyl)-1,3,8-triazaspiro[4.5]decan-2-one] had an IC50 of less than 3 nM. Turning to `COc1cccc(CN2C(=O)N(c3ccc(-c4cn[nH]c4)cc3)CC23CCN(CC2CC2)CC3)c1` [Example 115, 3-(4-(1H-pyrazol-4-yl)phenyl)-8-(cyclopropylmethyl)-1-(3-methoxybenzyl)-1,3,8-triazaspiro[4.5]decan-2-one], the 50% inhibitory concentration (IC50) was less than 3 nM.

In the case of `CCCN1CCC2(CC1)CN(c1ccc(-c3cn[nH]c3)cc1)C(=O)N2Cc1cccc(OC)c1` [Example 116, 3-(4-(1H-pyrazol-4-yl)phenyl)-1-(3-methoxybenzyl)-8-propyl-1,3,8-triazaspiro[4.5]decan-2-one], the IC50 is less than 3 nM. Molecule `COc1cccc(CN2C(=O)N(c3ccc(-c4cn[nH]c4)cc3)CC23CCN(CCC(C)C)CC3)c1` [Example 117, 3-(4-(1H-pyrazol-4-yl)phenyl)-8-isopentyl-1-(3-methoxybenzyl)-1,3,8-triazaspiro[4.5]decan-2-one] showed an IC50 of less than 3 nM.

Molecule `COc1cccc(CN2C(=O)N(c3ccc(-c4cn[nH]c4)cc3)CC23CCN(CC2CCCC2)CC3)c1` [Example 118, 3-(4-(1H-pyrazol-4-yl)phenyl)-8-(cyclopentylmethyl)-1-(3-methoxybenzyl)-1,3,8-triazaspiro[4.5]decan-2-one] had a 50% inhibitory concentration (IC50) of less than 3 nM.

For the molecule `COc1cccc(CN2C(=O)N(c3ccc(-c4cn[nH]c4)cc3)CC23CCN(CC(O)CO)CC3)c1` (stereo not shown) [Example 120, 3-(4-(1H-pyrazol-4-yl)phenyl)-8-(2,3-dihydroxypropyl)-1-(3-methoxybenzyl)-1,3,8-triazaspiro[4.5]decan-2-one], the half-inhibitory concentration (IC50) was less than 3 nM. Regarding `COc1cccc(CN2C(=O)N(c3ccc(-c4cn[nH]c4)cc3)CC23CCN(CCC(F)(F)F)CC3)c1` [Example 121, 3-(4-(1H-pyrazol-4-yl)phenyl)-1-(3-methoxybenzyl)-8-(3,3,3-trifluoropropyl)-1,3,8-triazaspiro[4.5]decan-2-one], the half-inhibitory concentration (IC50) was less than 3 nM.

Usually IC50 stands for the midpoint of a concentration-inhibition curve. The low end stands for inhibition by little substance, the high end for a need for much substance.
